Assay results published in US11066399B2, “Ferroportin inhibitors” (Vifor (International) AG, priority 2015, dated 2021).
Marks after values point to notes of the source that are not given here.

Key:
ferroportin (Fpn) [1] = biological target: T1, ferroportin (Fpn) (Mus musculus, UniProt Q9JHI9); test: Hepcidin Internalization Assay (J774); format: cell-based; settings: average (AVE) of multiple measurements; TMR-hepcidin 25 nM, J774 cells
T1 construct: host or cells: J774 mouse macrophage cell line, Fe(III)-NTA induced
T1 sequence (Q9JHI9 1-570): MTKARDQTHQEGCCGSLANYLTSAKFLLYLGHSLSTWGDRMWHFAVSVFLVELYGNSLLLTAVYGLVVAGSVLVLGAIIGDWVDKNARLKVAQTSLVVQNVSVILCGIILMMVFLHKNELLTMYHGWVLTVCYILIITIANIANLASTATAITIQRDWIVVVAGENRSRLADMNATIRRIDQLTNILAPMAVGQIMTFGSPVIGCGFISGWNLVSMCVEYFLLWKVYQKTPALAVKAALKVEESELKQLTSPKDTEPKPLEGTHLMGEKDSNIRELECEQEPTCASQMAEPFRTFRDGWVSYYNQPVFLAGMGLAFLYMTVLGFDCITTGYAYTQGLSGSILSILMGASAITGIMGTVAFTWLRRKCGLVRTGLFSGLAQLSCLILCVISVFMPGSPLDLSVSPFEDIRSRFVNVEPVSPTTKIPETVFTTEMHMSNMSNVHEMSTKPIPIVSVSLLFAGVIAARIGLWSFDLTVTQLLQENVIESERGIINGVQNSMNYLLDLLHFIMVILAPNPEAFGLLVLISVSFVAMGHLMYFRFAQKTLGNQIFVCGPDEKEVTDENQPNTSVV
Text: This cellular assay allows quantification of the binding of hepcidin to ferroportin (Fpn) through microscopic detection of internalization of a fluorescently labeled hepcidin into J774 cells. […] Binding of hepcidin to Fpn triggers internalization and degradation of both hepcidin and Fpn. However, the TMR (6-carboxytetramethylrhodamine) fluorophore attached to hepcidin remains associated with the cell after degradation of the hepcidin peptide backbone. Therefore, microscopic detection of cell-associated TMR fluorescence is a measure of hepcidin binding to Fpn and internalization of hepcidin and Fpn. If TMR-hepcidin is prevented from binding to Fpn, cellular TMR fluorescence remains low (Dürrenberger et al, 2013). The effect of small molecular weight Fpn inhibitor compounds in this assay was evaluated in vitro as described below.
After overnight incubation, cells were washed 3 times with pre-warmed DMEM w/o phenol red, 30 μl/well of DMEM w/o phenol red was added after the final wash and 10 μl/well of dilution series of test compounds were added in triplicates. […] Cells were incubated in a total volume of 50 μl at 37° C. with 5% CO2 for 2 hours, then Hoechst 33342 dye was added to a final concentration of 0.5 μg/ml to stain nuclei and further incubated for 10 min. at 37° C. with 5% CO2. Cells were washed 3 times with PBS and fixed in 100 μl of 4% paraformaldehyde in PBS for 15 min. at room temperature. After removal of the paraformaldehyde solution, cells were washed 3 times with PBS leaving 100 μl per well and the plates were sealed with foil plate seal. TMR (530-550 nm excitation/575-625 nm emission/400 ms exposure time) and Hoechst 33342 (360-370 nm excitation/420-460 nm emission/10 ms exposure time) fluorescence images were acquired using a ScanR plate imager (Olympus) with a 20× high NA objective. Four pictures were acquired per well and fluorescence channel covering ca. 1500 cells per well. The acquired image data was analysed with the ScanR image analysis software. Image analysis included detection of nuclei (Hoechst 33342 fluorescence), identification of cell-associated regions, application of a virtual channel and thresholding for rolling-ball-type background reduction, followed by application of the Sum(Mean) algorithm to measure the TMR fluorescence associated with cells as a quantitative measure for internalized TMR-hepcidin. IC50 values were calculated with the Sum(Mean) raw data using “log(inhibitor) vs. response” curve fitting of Prism 5 software (GraphPad Software Inc., version 5.02).

human Fpn = biological target: T2, human Fpn (Homo sapiens, UniProt Q9NP59); test: Biophysical Ferroportin-Hepcidin Binding Assay (fluorescence polarization); settings: average (AVE) of multiple measurements; TMR-hepcidin binding to purified human Fpn; read-out: FP IC50
T2 construct: FLAG (C); made in house; host or cells: Pichia pastoris
T2 sequence (Q9NP59 1-571): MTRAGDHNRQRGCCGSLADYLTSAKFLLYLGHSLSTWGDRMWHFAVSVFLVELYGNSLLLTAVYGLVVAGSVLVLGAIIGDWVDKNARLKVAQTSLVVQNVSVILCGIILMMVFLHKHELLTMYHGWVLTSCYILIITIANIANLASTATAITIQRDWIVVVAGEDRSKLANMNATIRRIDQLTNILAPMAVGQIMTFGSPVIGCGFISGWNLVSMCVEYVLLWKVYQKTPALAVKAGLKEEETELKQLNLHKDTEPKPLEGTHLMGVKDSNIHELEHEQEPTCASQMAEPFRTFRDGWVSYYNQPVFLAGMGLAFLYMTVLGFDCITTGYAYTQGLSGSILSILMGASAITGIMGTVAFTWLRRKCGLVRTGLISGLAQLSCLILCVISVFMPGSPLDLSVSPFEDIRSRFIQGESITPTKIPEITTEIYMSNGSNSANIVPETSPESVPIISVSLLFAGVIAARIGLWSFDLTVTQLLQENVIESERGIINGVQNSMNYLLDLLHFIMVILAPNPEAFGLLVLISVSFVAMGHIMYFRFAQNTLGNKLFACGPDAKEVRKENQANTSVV
Description: This biophysical assay was developed to confirm inhibition of hepcidin binding to ferroportin (Fpn) more directly. Incubation of TMR-hepcidin with purified human Fpn isolated from Pichia pastoris yeast cells expressing human Fpn with a C-terminal FLAG affinity tag (Bonaccorsi di Patti, 2014) leads to increased fluorescence polarization (FP) of the TMR-hepcidin ligand. Small molecular weight Fpn inhibitors were tested for inhibition of binding of TMR-hepcidin to Fpn, as detected by dose-dependent decrease of the TMR FP signal, as described in detail below.
A mixture of […] human Fpn and 30 nM TMR-hepcidin in FP assay buffer containing 50 mM Tris-HCl pH 7.3, 200 mM NaCl, 0.02% DDM, 0.1% BSA was plated into a 384 well black low volume round bottom plate (Corning, Cat. 3677) at 16 μl per well. 8 μl of serial dilutions of test compounds were added in duplicates to reach final Fpn and TMR-hepcidin concentrations of […] and 20 nM, respectively. Plates were incubated for 90 minutes at room temperature and parallel (S) and perpendicular (P) fluorescence was measured in a Synergy H1 fluorescence reader (BioTek). FP values were calculated in mP according to the following formula.

anemic Wistar rats = test: Prevention of iron absorption in anemic rats; format: in vivo, rat; settings: 1 h before 0.5 mg/kg ferrous sulfate
Description: To assess the in vivo efficacy of ferroportin (Fpn) inhibitors to block iron absorption, a series of Fpn inhibitors were tested in an anemic rat model for iron absorption. Wistar rats (3-4 weeks old, n=5, Janvier Labs) were fed a low iron diet (Provimi-Kliba, Cat. 2039) until their hemoglobin (Hb) values reach 7-8 g/dl one day before dosing of the Fpn inhibitor compounds. One hour before oral application of 0.5 mg/kg of ferrous sulfate, test compounds formulated in methyl cellulose or Cremophor were dosed orally. Blood samples were taken by tail vein puncture one hour before administration of iron (−1 h), immediately after dosing of the Fpn inhibitors (0 h) and one hour (1 h), three hours (3 h) and occasionally up to 6 hours (6 h) after dosing of the test compounds. Serum iron levels were measured (Abbott Diagnostics, Cat. 6K95) and inhibition of the rise of serum iron three hours after dosing of the test compound was calculated as a measure for efficacy of the Fpn inhibitors in blocking iron absorption (Table 7).

ferroportin (Fpn) [2] = biological target: T1, ferroportin (Fpn); test: Ferroportin Ubiquitination and Degradation (immunoprecipitation, Western blot, J774 cells); format: cell-based; design: key: +: comparable to hepcidin; −: no effect; +/−: intermediate effect; settings: ca. 10-fold IC50 concentration, visual inspection of Western blots
Description: Exposure of cells expressing ferroportin (Fpn) to hepcidin is known to trigger ubiquitination and subsequent internalization and degradation of Fpn (Qiao, 2012). The potential of Fpn inhibitors to induce Fpn ubiquitination and degradation was investigated with an immunoprecipitation assay using the J774 mouse macrophage cell line which expresses Fpn upon treatment with iron.
Cells were incubated with synthetic human hepcidin (Bachem, Cat. H-5926) or Fpn inhibitor compounds for 10 min or 120 min. Cells were washed and lysed with ice-cold lysis buffer (Pierce, Life Technologies, Cat. 87787) including 1×HALT protease inhibitor cocktail (Life technologies, Cat. 78429) and 10 mM iodoacetamide (Sigma, Cat. 16125) to stabilize ubiquitinated proteins. Immunoprecipitation was done using the Pierce Classic IP Kit (Life Technologies, Cat. 26146) following the manufacturer's protocol. Briefly, 2 mg protein in 1.25 ml IP lysis buffer was incubated by mixing for 1 h at 4° C. with control agarose beads to pre-clear the lysate and reduce nonspecific signal. Unbound lysate was then incubated overnight with 12 μg per reaction of the affinity purified anti-Fpn antibody F308 that was raised against a GST fusion protein of mouse Fpn amino acids 224-308. Immune complexes were captured by pipetting 14 μl settled Pierce Protein A/G Plus Agarose beads (Life Technologies, Cat. 20423) per reaction and the slurry was incubated for 1.5 h at 4° C. with gentle end-over-end mixing. The beads were washed and immune complexes were eluted directly with 75 μl SDS NuPAGE LDS sample buffer (Life Technologies, Cat. NP0007) containing DTT (Life Technologies, Cat. NP0009). After immunoprecipitation samples were analyzed by Western blotting using a rabbit anti-mouse MTP1 antiserum (Alpha Diagnostic International, Cat. MTP11-A) and a mouse anti-mono- and polyubiquitinylated conjugates monoclonal antibody (Enzo Lifesciences, Cat. BML-PW8810) for detection of ferroportin and ubiquitin, respectively. Mouse monoclonal anti-rabbit IgG light chain (Abcam, Cat. ab99697) and anti-mouse IgG H&L (Abcam, Cat. ab6789) HRP conjugates were used as secondary antibodies.
A selection of eleven Fpn inhibitors were tested in this assay and compared to hepcidin.
Table 5 Summary of Fpn inhibitors tested in the Fpn ubiquitination and degradation assay.

naïve WT C57BL/6 mice = test: Hypoferremia in naïve mice; format: in vivo, mouse; settings: injection of synthetic hepcidin in WT naïve mice, from the vehicle control, maximal effect at 3-4 hours
Description: Female C57BL/6 mice (Janvier, France) at age of 9 weeks were fed a standard diet (Harlan Provimi Kliba 3436) and treated per os (p.o.) with compounds or the corresponding amount of vehicle at a volume of 10 ml/kg body weight. Fpn inhibitors were formulated in 0.5% methylcellulose/water or 20% cremophor EL/water and dosed p.o. in mice at 10, 30 or 100 mg/kg body weight. Three hours later, mice were pre-terminally anesthetized in isoflurane chambers and blood was collected by retro-orbital bleeding. Mice were sacrificed by cervical dislocation and spleens, livers and duodena were harvested and used for biomarker analysis. All experiments have been conducted in compliance with the license approved by the responsible veterinarian authorities. Serum was isolated by centrifugation of blood into gel-containing microtainers and serum iron was determined by the MULTIGENT Iron assay (Abbott Diagnostics, 6K95). Eight mice per group were used and one-way ANOVA with Bonferroni's multiple comparison test was performed to analyze the statistical differences between the experimental groups.
Relative serum iron reduction at 3 h after dosing was calculated by subtracting the average of serum iron values of animals dosed with the Fpn inhibitor from that of vehicle-treated animals. The difference in average serum iron values between vehicle and compound treated groups was then divided by the average of serum iron of the vehicle control group and listed as percentage.

| SMILES | IC50 (ferroportin (Fpn) [1]) | IC50 (human Fpn) | Fpn Degradation (120 min.) (ferroportin (Fpn) [2]) | Fpn Ubiquitination (10 min.) (ferroportin (Fpn) [2]) | other results |
| --- | --- | --- | --- | --- | --- |
| O=C(NCc1ccccn1)c1csc2c1CCN(CCc1nc3ccccc3[nH]1)C2 [Example 49] | 30.6 µM | 24 µM | – | – | – |
| Cc1cccnc1CNC(=O)c1csc(CCNCc2nc3ccccc3[nH]2)n1 [Example 55] | 0.015 µM | – | – | – | Serum Iron Inhibition (%) at 3 h (anemic Wistar rats; Dose 3 mg/kg oral): 54*** %; Serum Iron Inhibition (%) at 3 h (anemic Wistar rats; Dose 10 mg/kg oral): 72*** % |
| O=C(NCc1ncccc1F)c1coc(CCNCc2nc3ccccc3[nH]2)n1 [Example 126] | – | – | + | +/− | – |
| O=C(NCc1ccccc1F)c1coc(C2CN(CCCc3nc4ccccc4[nH]3)C2)n1 [Example 233] | 16 µM | 6.78 µM | – | – | – |
| CC[C@H](C)[C@@H]1NC(=O)[C@@H](NC(=O)[C@@H](NC(=O)[C@@H]2CCCN2C(=O)[C@H](Cc2ccccc2)NC(=O)[C@H](Cc2c[nH]cn2)NC(=O)[C@@H](NC(=O)[C@@H](N)CC(=O)O)[C@@H](C)O)[C@@H](C)CC)CSSC[C@@H](C(=O)N[C@@H](CCCCN)C(=O)N[C@H](C(=O)O)[C@@H](C)O)NC(=O)[C@@H]2CSSC[C@@H]3NC(=O)[C@@H]4CSSC[C@H](NC(=O)[C@H](Cc5ccccc5)NC1=O)C(=O)N[C@@H](CSSC[C@H](NC(=O)[C@H](CCCCN)NC(=O)[C@H](CO)NC(=O)[C@H](CCCNC(=N)N)NC(=O)[C@H](Cc1c[nH]cn1)NC3=O)C(=O)NCC(=O)N[C@@H](CCSC)C(=O)N2)C(=O)NCC(=O)N4 [hepcidin, reference compound] | – | – | + | + | reduction of serum iron levels (naïve WT C57BL/6 mice): 40-50% |
